{"source": "patent US10745448B2", "about": "“Antiviral peptide and use therefor” (priority 2017, dated 2020)", "note": "Several values for one entry are separate records, joined by “and”; a condition that tells them apart may be missing. Equal entries are not always repeated. No end group written: not given here."}
{"system": "vesicular stomatitis Indiana virus (Indiana VSV)", "assay_type": "cell-based"}
{"substance": "MKAIIVLLMVVTSNAKKRTLRKNDRKKR-CONH2 (MKAIIVLLMVVTSNAKKRTLRKNDRKKR-NH2) [Sample 3]", "Virus infectivity (virus titer)": "9.23 log10 PFU/mL and 6.34 log10 PFU/mL"}
{"substance": "MKTIIALSYIFCLALGKKRTLRKNDRKKR-CONH2 (MKTIIALSYIFCLALGKKRTLRKNDRKKR-NH2) [Sample 2]", "Virus infectivity (virus titer)": "9.07 log10 PFU/mL and 5.95 log10 PFU/mL"}
{"substance": "MLSYLIFALAVSPILGKKRTLRKNDRKKR-CONH2 (MLSYLIFALAVSPILGKKRTLRKNDRKKR-NH2) [Sample 1]", "Virus infectivity (virus titer)": "9.11 log10 PFU/mL and 5.90 log10 PFU/mL"}
